# Experimental data from PubChem BioAssay AID2060509 (Molecular Pharmacology Branch, DTP, NCI, 2025).
# Tested on: 485176-168-R4-J1-PDC spheroids with HUVEC/MSC, viability
# Assay: Anticancer human tumor 485176-168-R4-J1-PDC patient-derived pancreatic adenocarcinoma cell line growth inhibition [GQUAD]
# Details: for IC50: curve of first compound; for viability, T/C: stronger effect = lower value
# In short: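 Viability of tumor cells grown as complex spheroids with endothelial and stromal cells, exposed to drug combinations. Top concentration at or near clinical Cmax (else 10 microM), diluted in half-log increments.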
# [1] = second compound 0.0316 µM, first compound 0.0316 µM
# [2] = second compound 0.0316 µM, first compound 0.316 µM
# [3] = second compound 0.1 µM, first compound 0.0316 µM
# [4] = second compound 0.1 µM, first compound 0.316 µM
# [5] = second compound 0.316 µM, first compound 0.0316 µM
# [6] = second compound 0.316 µM, first compound 0.316 µM
# [7] = second compound 1 µM, first compound 0.0316 µM
# [8] = second compound 1 µM, first compound 0.316 µM
# [9] = second compound 3.16 µM, first compound 0.0316 µM
# [10] = second compound 3.16 µM, first compound 0.316 µM
# [11] = second compound 10 µM, first compound 0.0316 µM
# [12] = second compound 10 µM, first compound 0.316 µM
# [13] = second compound 0.0316 µM, first compound 0.000999 µM
# [14] = second compound 0.0316 µM, first compound 0.00316 µM
# [15] = second compound 0.0316 µM, first compound 0.00999 µM
# [16] = second compound 0.0316 µM, first compound 0.0999 µM
# [17] = second compound 0.1 µM, first compound 0.000999 µM
# [18] = second compound 0.1 µM, first compound 0.00316 µM
# [19] = second compound 0.1 µM, first compound 0.00999 µM
# [20] = second compound 0.1 µM, first compound 0.0999 µM
# [21] = second compound 0.316 µM, first compound 0.000999 µM
# [22] = second compound 0.316 µM, first compound 0.00316 µM
# [23] = second compound 0.316 µM, first compound 0.00999 µM
# [24] = second compound 0.316 µM, first compound 0.0999 µM
# [25] = second compound 1 µM, first compound 0.000999 µM
# [26] = second compound 1 µM, first compound 0.00316 µM
# [27] = second compound 1 µM, first compound 0.00999 µM
# [28] = second compound 1 µM, first compound 0.0999 µM
# [29] = second compound 3.16 µM, first compound 0.000999 µM
# [30] = second compound 3.16 µM, first compound 0.00316 µM
# [31] = second compound 3.16 µM, first compound 0.00999 µM
# [32] = second compound 3.16 µM, first compound 0.0999 µM
# [33] = second compound 10 µM, first compound 0.000999 µM
# [34] = second compound 10 µM, first compound 0.00316 µM
# [35] = second compound 10 µM, first compound 0.00999 µM
# [36] = second compound 10 µM, first compound 0.0999 µM
# 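Also: spheroids exposed to compounds for seven days before readout.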
# 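For viability, T/C in this document: percent viability relative to DMSO vehicle control wells as 100%.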
compound,measurement,setting,value
C=CC(=O)N1CCN(c2nc(=O)n(-c3c(C)ccnc3C(C)C)c3nc(-c4c(O)cccc4F)c(F)cc23)C(C)C1 (stereo unspecified) + Cc1[nH]c2ccc(F)cc2c1-c1nc2c3cccnc3c3ncccc3c2[nH]1,IC50,second compound 0.0316 µM,> 10000 nM
same,IC50,second compound 0.1 µM,> 10000 nM
same,IC50,second compound 0.316 µM,> 10000 nM
same,IC50,second compound 1 µM,> 10000 nM
same,IC50,second compound 3.16 µM,> 10000 nM
same,IC50,second compound 10 µM,> 10000 nM
same,"viability, T/C",[1],114%
same,"viability, T/C","second compound 0.0316 µM, first compound 0.1 µM",100%
same,"viability, T/C",[2],103%
same,"viability, T/C","second compound 0.0316 µM, first compound 1 µM",89.4%
same,"viability, T/C","second compound 0.0316 µM, first compound 3.16 µM",122%
same,"viability, T/C","second compound 0.0316 µM, first compound 10 µM",102%
same,"viability, T/C",[3],80.1%
same,"viability, T/C","second compound 0.1 µM, first compound 0.1 µM",109%
same,"viability, T/C",[4],116%
same,"viability, T/C","second compound 0.1 µM, first compound 1 µM",112%
same,"viability, T/C","second compound 0.1 µM, first compound 3.16 µM",117%
same,"viability, T/C","second compound 0.1 µM, first compound 10 µM",102%
same,"viability, T/C",[5],87.3%
same,"viability, T/C","second compound 0.316 µM, first compound 0.1 µM",86.4%
same,"viability, T/C",[6],92%
same,"viability, T/C","second compound 0.316 µM, first compound 1 µM",101%
same,"viability, T/C","second compound 0.316 µM, first compound 3.16 µM",111%
same,"viability, T/C","second compound 0.316 µM, first compound 10 µM",96.7%
same,"viability, T/C",[7],96.7%
same,"viability, T/C","second compound 1 µM, first compound 0.1 µM",86.5%
same,"viability, T/C",[8],104%
same,"viability, T/C","second compound 1 µM, first compound 1 µM",103%
same,"viability, T/C","second compound 1 µM, first compound 3.16 µM",113%
same,"viability, T/C","second compound 1 µM, first compound 10 µM",104%
same,"viability, T/C",[9],91.7%
same,"viability, T/C","second compound 3.16 µM, first compound 0.1 µM",95.5%
same,"viability, T/C",[10],108%
same,"viability, T/C","second compound 3.16 µM, first compound 1 µM",83.6%
same,"viability, T/C","second compound 3.16 µM, first compound 3.16 µM",92.1%
same,"viability, T/C","second compound 3.16 µM, first compound 10 µM",90.8%
same,"viability, T/C",[11],87.3%
same,"viability, T/C","second compound 10 µM, first compound 0.1 µM",105%
same,"viability, T/C",[12],78.1%
same,"viability, T/C","second compound 10 µM, first compound 1 µM",80.8%
same,"viability, T/C","second compound 10 µM, first compound 3.16 µM",87.7%
same,"viability, T/C","second compound 10 µM, first compound 10 µM",76.5%
CC[C@@]1(O)C(=O)OCc2c1cc1n(c2=O)Cc2cc3c(CN(C)C)c(O)ccc3nc2-1 + Cc1[nH]c2ccc(F)cc2c1-c1nc2c3cccnc3c3ncccc3c2[nH]1,IC50,second compound 0.0316 µM,134 nM
same,IC50,second compound 0.1 µM,178 nM
same,IC50,second compound 0.316 µM,89 nM
same,IC50,second compound 1 µM,125 nM
same,IC50,second compound 3.16 µM,121 nM
same,IC50,second compound 10 µM,148 nM
same,"viability, T/C",[13],124%
same,"viability, T/C",[14],107%
same,"viability, T/C",[15],99.4%
same,"viability, T/C",[1],70.6%
same,"viability, T/C",[16],57.5%
same,"viability, T/C",[2],34.4%
same,"viability, T/C",[17],85.6%
same,"viability, T/C",[18],83.4%
same,"viability, T/C",[19],97.1%
same,"viability, T/C",[3],89.8%
same,"viability, T/C",[20],59%
same,"viability, T/C",[4],41.1%
same,"viability, T/C",[21],106%
same,"viability, T/C",[22],94.7%
same,"viability, T/C",[23],108%
same,"viability, T/C",[5],75.6%
same,"viability, T/C",[24],50.3%
same,"viability, T/C",[6],38.5%
same,"viability, T/C",[25],93.3%
same,"viability, T/C",[26],105%
same,"viability, T/C",[27],118%
same,"viability, T/C",[7],82.9%
same,"viability, T/C",[28],56%
same,"viability, T/C",[8],36.5%
same,"viability, T/C",[29],88.1%
same,"viability, T/C",[30],99.7%
same,"viability, T/C",[31],79.9%
same,"viability, T/C",[9],65.3%
same,"viability, T/C",[32],57.2%
same,"viability, T/C",[10],33.8%
same,"viability, T/C",[33],81.5%
same,"viability, T/C",[34],101%
same,"viability, T/C",[35],68.3%
same,"viability, T/C",[11],77.2%
same,"viability, T/C",[36],58.2%
same,"viability, T/C",[12],34%
CCc1c2c(nc3ccc(O)cc13)-c1cc3c(c(=O)n1C2)COC(=O)[C@]3(O)CC + Cc1[nH]c2ccc(F)cc2c1-c1nc2c3cccnc3c3ncccc3c2[nH]1,IC50,second compound 0.0316 µM,4.64 nM
same,IC50,second compound 0.1 µM,5.56 nM
same,IC50,second compound 0.316 µM,7.02 nM
same,IC50,second compound 1 µM,6.08 nM
same,IC50,second compound 3.16 µM,7.23 nM
same,IC50,second compound 10 µM,4.06 nM
same,"viability, T/C",[13],76.6%
same,"viability, T/C",[14],58.1%
same,"viability, T/C",[15],35.2%
same,"viability, T/C",[1],20.1%
same,"viability, T/C",[16],17.6%
same,"viability, T/C",[2],6.23%
same,"viability, T/C",[17],78.8%
same,"viability, T/C",[18],62.2%
same,"viability, T/C",[19],35.6%
same,"viability, T/C",[3],27.4%
same,"viability, T/C",[20],10.9%
same,"viability, T/C",[4],5.79%
same,"viability, T/C",[21],83.4%
same,"viability, T/C",[22],71.4%
same,"viability, T/C",[23],38.2%
same,"viability, T/C",[5],22.4%
same,"viability, T/C",[24],15.7%
same,"viability, T/C",[6],3.93%
same,"viability, T/C",[25],71.4%
same,"viability, T/C",[26],60.9%
same,"viability, T/C",[27],41.6%
same,"viability, T/C",[7],23.8%
same,"viability, T/C",[28],12.5%
same,"viability, T/C",[8],7.51%
same,"viability, T/C",[29],98.3%
same,"viability, T/C",[30],73.2%
same,"viability, T/C",[31],38.1%
same,"viability, T/C",[9],24.4%
same,"viability, T/C",[32],13.3%
same,"viability, T/C",[10],5.95%
same,"viability, T/C",[33],76.1%
same,"viability, T/C",[34],50%
same,"viability, T/C",[35],37.8%
same,"viability, T/C",[11],27.7%
same,"viability, T/C",[36],10.8%
same,"viability, T/C",[12],6.05%
